Experiments:
[1] = Growth inhibition of human K/VP.5 cells by MTS method; type: functional
K562 [2] = experiment: Resistance factor, ratio of IC50 for human K/VP.5 cells to IC50 for human K562 cells; type: functional
Calf thymus DNA = experiment: Binding affinity to calf thymus DNA assessed as change in melting temperature at 2 uM by thermal denaturation assay; type: nucleic-acid assay; conditions: Bos taurus
K562 [3] = experiment: Growth inhibition of human K562 cells by MTS method; type: functional, cell-based
[4] = target: DNA topoisomerase 2-alpha (Homo sapiens, UniProt P11388); experiment: Inhibition of decatenation activity of human topoisomerase 2alpha
DNA topoisomerase 2-alpha, sequence (P11388 whole entry): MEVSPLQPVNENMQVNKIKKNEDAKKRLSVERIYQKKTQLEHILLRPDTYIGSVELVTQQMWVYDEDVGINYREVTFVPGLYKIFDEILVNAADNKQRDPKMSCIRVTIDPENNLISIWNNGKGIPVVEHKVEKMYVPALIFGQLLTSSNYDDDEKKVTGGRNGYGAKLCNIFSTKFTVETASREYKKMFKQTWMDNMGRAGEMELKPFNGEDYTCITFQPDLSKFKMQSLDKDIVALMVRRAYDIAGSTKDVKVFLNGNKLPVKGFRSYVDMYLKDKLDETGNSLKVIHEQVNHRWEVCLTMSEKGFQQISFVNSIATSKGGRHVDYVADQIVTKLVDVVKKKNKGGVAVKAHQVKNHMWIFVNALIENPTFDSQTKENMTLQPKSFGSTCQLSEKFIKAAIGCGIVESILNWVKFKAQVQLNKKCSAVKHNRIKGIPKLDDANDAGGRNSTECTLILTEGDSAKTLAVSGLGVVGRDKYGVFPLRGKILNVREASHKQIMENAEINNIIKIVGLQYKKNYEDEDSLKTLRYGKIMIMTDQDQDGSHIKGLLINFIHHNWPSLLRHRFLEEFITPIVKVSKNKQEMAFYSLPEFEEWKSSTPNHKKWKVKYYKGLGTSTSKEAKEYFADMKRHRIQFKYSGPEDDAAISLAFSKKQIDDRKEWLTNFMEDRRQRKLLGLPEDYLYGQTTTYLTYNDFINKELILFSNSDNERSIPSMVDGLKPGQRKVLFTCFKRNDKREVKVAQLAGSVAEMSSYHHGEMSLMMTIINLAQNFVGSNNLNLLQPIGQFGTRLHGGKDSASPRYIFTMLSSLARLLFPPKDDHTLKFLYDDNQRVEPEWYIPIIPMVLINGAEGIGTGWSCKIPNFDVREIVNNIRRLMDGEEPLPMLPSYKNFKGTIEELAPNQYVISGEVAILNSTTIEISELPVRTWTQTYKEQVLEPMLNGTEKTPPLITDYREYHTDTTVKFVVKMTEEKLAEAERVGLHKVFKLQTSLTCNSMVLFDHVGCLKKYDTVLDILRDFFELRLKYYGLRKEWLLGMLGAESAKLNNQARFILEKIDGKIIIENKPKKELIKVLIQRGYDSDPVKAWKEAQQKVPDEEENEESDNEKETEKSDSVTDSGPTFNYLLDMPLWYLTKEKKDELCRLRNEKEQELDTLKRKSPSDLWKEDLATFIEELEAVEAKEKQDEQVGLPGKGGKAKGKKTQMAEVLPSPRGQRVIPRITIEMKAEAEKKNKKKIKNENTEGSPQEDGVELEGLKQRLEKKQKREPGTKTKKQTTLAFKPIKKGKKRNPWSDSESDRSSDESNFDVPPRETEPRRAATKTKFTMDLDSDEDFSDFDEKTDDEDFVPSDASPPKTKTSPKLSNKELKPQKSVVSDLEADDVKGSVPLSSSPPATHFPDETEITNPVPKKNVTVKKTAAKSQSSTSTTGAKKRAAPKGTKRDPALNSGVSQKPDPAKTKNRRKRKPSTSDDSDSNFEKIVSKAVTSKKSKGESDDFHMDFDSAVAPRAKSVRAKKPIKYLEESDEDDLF

| ΔTm (Calf thymus DNA) | IC50 (K562 [3]) | IC50 [4] | Structure (SMILES) | IC50 [1] | Ratio IC50 (K562 [2]) |
| --- | --- | --- | --- | --- | --- |
| 21.8 °C | 3.5 µM | 7 µM | CN(CCNC(=O)CCC(=O)NCCN(C)CCn1nc2c3c(cccc31)C(=O)c1c(Cl)cccc1-2)CCn1nc2c3c(cccc31)C(=O)c1c(Cl)cccc1-2 | 1.6 µM | 0.44 |
| 1.1 °C | 3.6 µM | 25 µM | CN(CCN=[N+]=[N-])CCn1nc2c3c(cccc31)C(=O)c1c(Cl)cccc1-2 |  |  |
| 10.2 °C | 3.6 µM | 18 µM | CN(CCN)CCn1nc2c3c(cccc31)C(=O)c1c(Cl)cccc1-2 | 1.5 µM | 0.43 |
| 4.8 °C | 4.6 µM | 22 µM | CN(CCNC(=O)CCCCCC(=O)NCCN(C)CCn1nc2c3c(cccc31)C(=O)c1c(Cl)cccc1-2)CCn1nc2c3c(cccc31)C(=O)c1c(Cl)cccc1-2 | 2.5 µM | 0.55 |
| 17.8 °C |  |  | COc1cccc2c1C(=O)c1c(O)c3c(c(O)c1C2=O)C[C@@](O)(C(=O)CO)C[C@@H]3O[C@H]1C[C@H](N)[C@H](O)[C@H](C)O1 |  |  |
| 9.6 °C | 2.6 µM | 42 µM | CN(CCNC(=O)CC(=O)NCCN(C)CCn1nc2c3c(cccc31)C(=O)c1c(Cl)cccc1-2)CCn1nc2c3c(cccc31)C(=O)c1c(Cl)cccc1-2 | 2 µM | 0.77 |
| 6.8 °C | 6.7 µM | 48 µM | CN(CCNC(=O)CCCCC(=O)NCCN(C)CCn1nc2c3c(cccc31)C(=O)c1c(Cl)cccc1-2)CCn1nc2c3c(cccc31)C(=O)c1c(Cl)cccc1-2 | 3.3 µM | 0.48 |
| 17.8 °C | 5.7 µM | 25 µM | CN(CCNC(=O)CCCC(=O)NCCN(C)CCn1nc2c3c(cccc31)C(=O)c1c(Cl)cccc1-2)CCn1nc2c3c(cccc31)C(=O)c1c(Cl)cccc1-2 | 2.3 µM | 0.39 |
| 5.4 °C | 3.1 µM | 10 µM | CN(CCO)CCn1nc2c3c(cccc31)C(=O)c1c(Cl)cccc1-2 | 1.9 µM | 0.63 |
